Experimental data: ChEMBL document CHEMBL2202973, “Specific interactions between adenosine and streptavidin/avidin” (Bioorg Med Chem Lett, 2012)
Calls of active or inactive are those of the source. The calls are words filed in the database; no cut-off is given here.

What was measured:
[1] = target: Streptavidin (Streptomyces avidinii) (UniProt P22629); assay: Binding affinity to Streptomyces avidinii assessed as changes in protein fluorescence intensity in presence of biotin by fluorescence spectral analysis method
Chain of Streptavidin (Streptomyces avidinii) (P22629 whole entry): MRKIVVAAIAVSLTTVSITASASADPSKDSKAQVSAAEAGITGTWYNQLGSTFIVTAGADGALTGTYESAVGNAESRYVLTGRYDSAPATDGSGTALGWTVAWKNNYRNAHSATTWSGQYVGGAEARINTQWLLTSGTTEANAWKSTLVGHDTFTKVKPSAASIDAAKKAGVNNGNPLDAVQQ

[2] = target: Streptavidin (Streptomyces avidinii) (UniProt P22629); assay: Binding affinity to Streptomyces avidinii assessed as quenching rate constant by fluorescence quenching spectral method
Avidin = Avidin (Gallus gallus, UniProt P02701); assay: Binding affinity to chick avidin using fluorescence spectral analysis method based double reciprocal plot analysis; conditions: read-out: Kd(app)
Chain of Avidin (P02701 whole entry): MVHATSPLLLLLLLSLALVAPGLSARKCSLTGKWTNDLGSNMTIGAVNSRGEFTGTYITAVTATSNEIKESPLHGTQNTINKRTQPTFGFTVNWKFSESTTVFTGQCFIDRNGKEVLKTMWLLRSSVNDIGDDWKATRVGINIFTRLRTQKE

Avidin (Gallus gallus) [3] = target: Avidin (Gallus gallus) (UniProt P02701); assay: Binding affinity to chick avidin assessed as changes in protein fluorescence intensity in presence of biotin by fluorescence spectral analysis method
Chain of Avidin (Gallus gallus) (P02701 whole entry): as above

[4] = target: Streptavidin (Streptomyces avidinii) (UniProt P22629); assay: Binding affinity to Streptomyces avidinii assessed as changes in protein fluorescence intensity by fluorescence spectral analysis method
Avidin (Gallus gallus) [5] = target: Avidin (Gallus gallus) (UniProt P02701); assay: Binding affinity to chick avidin assessed as changes in protein fluorescence intensity by fluorescence spectral analysis method
Streptavidin = Streptavidin (Streptomyces avidinii, UniProt P22629); assay: Binding affinity to Streptomyces avidinii streptavidin using fluorescence spectral analysis method based double reciprocal plot analysis; conditions: read-out: Kd(app)
Chain of Streptavidin (P22629 whole entry): as the sequence (P22629 whole entry) above

Albumin = Albumin (Bos taurus, UniProt P02769); assay: Binding affinity to BSA assessed as changes in tryptophan fluorescence intensity by fluorescence spectral analysis method; conditions: cattle
Chain of Albumin (P02769 whole entry): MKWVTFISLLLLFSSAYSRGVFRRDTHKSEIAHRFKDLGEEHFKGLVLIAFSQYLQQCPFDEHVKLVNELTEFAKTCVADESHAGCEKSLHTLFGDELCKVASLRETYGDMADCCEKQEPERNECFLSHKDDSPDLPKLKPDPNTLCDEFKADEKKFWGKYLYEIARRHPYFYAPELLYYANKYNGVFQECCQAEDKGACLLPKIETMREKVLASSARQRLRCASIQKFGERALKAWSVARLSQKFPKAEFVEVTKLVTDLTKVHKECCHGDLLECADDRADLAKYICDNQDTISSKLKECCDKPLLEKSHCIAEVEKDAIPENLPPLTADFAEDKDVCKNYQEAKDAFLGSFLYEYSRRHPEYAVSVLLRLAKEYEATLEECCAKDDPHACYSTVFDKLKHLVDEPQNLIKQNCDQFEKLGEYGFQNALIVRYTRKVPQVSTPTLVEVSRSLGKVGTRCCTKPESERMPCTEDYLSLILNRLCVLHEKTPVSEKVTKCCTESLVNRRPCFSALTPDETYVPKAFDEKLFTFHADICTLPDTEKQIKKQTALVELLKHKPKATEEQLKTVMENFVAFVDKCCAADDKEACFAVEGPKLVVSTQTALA

Avidin (Gallus gallus) [6] = target: Avidin (Gallus gallus) (UniProt P02701); assay: Binding affinity to chick avidin assessed as quenching rate constant by fluorescence quenching spectral method

Nc1ncnc2c1ncn2[C@@H]1O[C@H](CO)[C@@H](O)[C@H]1O [ADENOSINE]
Activity [1]: inactive
Kq [2]: 8.5 ×10¹⁰ L/mol/s
Kd (Avidin): 117 µM
Activity (Avidin (Gallus gallus) [3]): inactive
Activity [4]: Active
Activity (Avidin (Gallus gallus) [5]): Active
Kd (Streptavidin): 168 µM
Activity (Albumin): Not Active
Kq (Avidin (Gallus gallus) [6]): 1.28 ×10¹¹ L/mol/s

Nc1ncnc2c1ncn2[C@@H]1O[C@H](COP(=O)(O)OP(=O)(O)OP(=O)(O)O)[C@@H](O)[C@H]1O
Activity [4]: inactive

O=C(O)CCCC[C@@H]1SC[C@@H]2NC(=O)N[C@@H]21
Activity [4]: Active
